Data on 2 molecules can be found in patent publication EP1779900A1, “Cosmetic or dermatological composition for prevention of light-induced aging” (Apotheker Walter Bouhon GmbH, priority 2005, dated 2007).

Some results are limits rather than exact numbers.

The test deals with interstitiellen Kollagenase 1 (Matrixmetalloproteinase-1, MMP1). Kind of test: Inhibition of UV-A-induced MMP1 mRNA expression in human dermal fibroblasts (real-time PCR, in vitro). The conditions noted are these: 20 J/cm^2 UV-A, versus control. The class given is cell-based. From the text: Es wird die Hemmung der UV-A-induzierten Genexpression am Beispiel der interstitiellen Kollagenase 1 (Matrixmetalloproteinase-1, MMP1) in humanen dermalen Fibroblasten untersucht. Die UV-A-induzierte Expression von MMP1 mRNS wird mittels Echtzeit PCR (Polymerase-Kettenreaktion) aus Zellen, die 24 Stunden nach der Bestrahlung mit 20 J/cm^2 geerntet worden sind, im Vergleich zu unbehandelten zeitgleichen Kontrollen bestimmt.
Da Serum Vitamin-A enthält, werden die verwendeten Zellkulturen für 24 Stunden serum-depriviert. Zur Kontrolle wird die Genexpression an unbehandelten Zellen ohne und mit UV-A-Bestrahlung ermittelt. In einer Konzentrationsreihe von 0,1 bis 30 µM an zugesetztem Retinol wird jeweils die Genexpression der unbestrahlten und der mit UV-A bestrahlten Zellkulturen bestimmt.
Wiederum wird eine Kontrollmessung der Genexpression an unbehandelten Zellkulturen mit und ohne UV-A-Bestrahlung durchgeführt. Den Zellkulturen wird in einer Konzentrationsreihe zwischen 5 und 100µM Generol® R, ein käuflich erwerbbares Produkt der Cognis France SA zugefügt. Generol® R ist eine Mischung aus verschiedenen Phytosterolen und wird aus Raps gewonnen. Generol® R besteht zu 40 bis 60% aus Sitosterol, 25 bis 40% Campesterol, 7 bis 18% Brassicasterol und einem geringem Anteil an Stigmasterol. Zum Erreichen der beschriebenen Konzentrationsreihe wurde Generol® R entsprechend verdünnt. […]

For `CC1=C(/C=C/C(C)=C/C=C/C(C)=C/CO)C(C)(C)CCC1` [Vitamin-A, Retinol], the “Hemmung der MMP1-Expression” value (Vitamin-A 10-25 µM (series 0,1-30 µM Retinol), serum-deprived 24 h, cells harvested 24 h after irradiation) is recorded as ≤ 82%.

For `Cc1c(C)c2c(c(C)c1OC(=O)CCC(=O)O)CCC(C)(CCCC(C)CCCC(C)CCCC(C)C)O2` (centres unmarked) [Vitamin-E-Sukzinat], where the note is “Vitamin-E-Sukzinat 10-75 µM, 24 h after irradiation”, the “Hemmung der MMP1 mRNS-Expression” value is given as ≤ 75%.
